Experimental data reported in paper PMC5535261 (Journal of Medicinal Chemistry, 2017).
Converted amounts (≈) assume the structure as drawn.

Key:
physchem = conditions: pH 7.4
[1] = system: P. berghei-infected female Swiss Webster mice; conditions: oral; for 50% curative dose (PD50): free bases, 4 daily doses, estimated from dose–efficacy study (Table 3); for mouse survival extended compared to vehicle-treated control animals: one or two daily doses of 4 mg/kg
[2] = Mouse liver microsome stability; conditions: for T1/2 (min) no NADPH / half-life: mouse liver microsomes; for microsomal CLint / half-life: mouse, microsomes
[3] = system: W2 P. falciparum parasites; assay: Plasmodium falciparum growth inhibition assay; conditions: 12f vs 2f
[4] = system: similar models (P. berghei-infected mice); conditions: single dose 20 mg/kg; cited from earlier work
[5] = T1/2 (min), half-life when incubated with mouse liver microsomes

Structure (SMILES) | T1/2 (min) no NADPH ([2]; no NADPH) | microsomal CLint [2] | half-life [2, 5] | other results
CC(C)(N)CNC(=O)C[C@H]1CC[C@]2(CC1)OO[C@]1(O2)C2CC3CC(C2)CC1C3 [2a, arterolane, reference compound] | stable |  |  | solubility kinetic (physchem): 433 µM (≈ 170 µg/mL); 50% curative dose (PD50) [1]: ~4 mg kg^–1 day^–1
NC(=O)CNC(=O)C[C@H]1CC[C@]2(CC1)OO[C@]1(O2)C2CC3CC(C2)CC1C3 [2b, reference compound] | stable |  |  | 
CC(C)(CN)CNC(=O)C[C@H]1CC[C@]2(CC1)OO[C@]1(O2)C2CC3CC(C2)CC1C3 [2d, reference compound] | stable |  |  | 
NC1CCN(C(=O)C[C@H]2CC[C@]3(CC2)OO[C@]2(O3)C3CC4CC(C3)CC2C4)CC1 [2i, reference compound] | stable |  |  | 
CC(C)(N)CNC(=O)C[C@@H]1CCC[C@]2(C1)OOC1(O2)C2CC3CC(C2)CC1C3 (stereo partly drawn) [12a] | stable | 4.1 µL/min/mg | 169 min | solubility kinetic (physchem): 429 µM (≈ 168 µg/mL); 50% curative dose (PD50) [1]: ~6 mg kg^–1 day^–1
NC(=O)CNC(=O)C[C@@H]1CCC[C@]2(C1)OOC1(O2)C2CC3CC(C2)CC1C3 (stereo partly drawn) [12b] | stable | 18.6 µL/min/mg | 37.3 min | 
NCCNC(=O)C[C@@H]1CCC[C@]2(C1)OOC1(O2)C2CC3CC(C2)CC1C3 (stereo partly drawn) [12c] |  | 8.2 µL/min/mg | 84.5 min | mouse survival extended compared to vehicle-treated control animals [1]: 3 to 6 days; half-life ([2]; T1/2 (min) no NADPH, no NADPH): 136 min
CC(C)(CN)CNC(=O)C[C@@H]1CCC[C@]2(C1)OOC1(O2)C2CC3CC(C2)CC1C3 (stereo partly drawn) [12d] | stable | 10.8 µL/min/mg | 64.2 min | 
O=C(C[C@@H]1CCC[C@]2(C1)OOC1(O2)C2CC3CC(C2)CC1C3)N1CCOCC1 (stereo partly drawn) [12f] |  |  |  | fold more potent than cis-4″ regioisomer 2f (EC50, W2) [3]: 3 fold
O=C(C[C@@H]1CCC[C@]2(C1)OOC1(O2)C2CC3CC(C2)CC1C3)N1CCNCC1 (stereo partly drawn) [12g] | stable | 27.2 µL/min/mg | 25.5 min | 
NC1CCN(C(=O)C[C@@H]2CCC[C@]3(C2)OOC2(O3)C3CC4CC(C3)CC2C4)CC1 (stereo partly drawn) [12i] | stable | 8.2 µL/min/mg | 84.5 min | mouse survival extended compared to vehicle-treated control animals [1]: 3 to 6 days
c1cc([C@H]2CC[C@]3(CC2)OO[C@]2(O3)C3CC4CC(C3)CC2C4)ccc1OCCN1CCOCC1 [compound 3, artefenomel] |  |  |  | single-dose efficacy [4]: single-dose cures
